Experimental data: US10004711B2, “Methods and compositions comprising 10-hydroxy-2-decenoic acid” (DSM IP ASSETS B.V., priority 2014, dated 2018)

Legend:
[1] = test system: RAW264.7 mouse macrophage cell line; experiment: IL-1β levels after LPS stimulation; type: cell-based; conditions: for IL-1β (pg/mL)/Cell Numbers: 24 h
Method: Cultures of the RAW264.7 mouse macrophage cell line were pre-treated with 10-Hydroxy-2-decenoic acid (QBA) for 1 hour prior to stimulation with lipopolysaccharide (LPS, 100 ng/mL). After 24 hours of incubation, interleukin […] (IL-1β) and tumor necrosis factor-α (TNFα) levels were determined by Luminex technology and cell numbers were measured using Alamar Blue. Results are given as a ratio of cytokine concentration/cell number.

older rats = experiment: Elevated plus-maze, older rats fed QBA; type: in vivo, rat; conditions: for Time (s) in Open Arm: rats 18 months old, 5-min test
Method: The dose-response characteristics of 10-Hydroxy-2-decenoic acid's (QBA's) potential brain health benefits during aging were assessed for mood in older rats (18-20 months old).
Rats were fed QBA and subjected to an elevated plus-maze. The elevated plus-maze was elevated ˜85 cm above the floor and consisted of two open and two closed arms of the same size (50×10 cm). The closed arms were surrounded by walls 40 cm high, and the arms were constructed of black acrylic slabs that radiated from a central platform (10×10 cm) to form a plus sign. Each rat was placed in the central platform facing one of the open arms, and its behavior was recorded during a 5-min testing period with video capture software. More time spent in the open arms is an indication of reduced anxiety-like state. Rats were tested at 18 months old (N=11-13 per group).

stem cells = conditions: Hattori et al. 2009; cited from earlier work
[2] = test system: Human peripheral blood mononuclear cells (PBMC); experiment: Proliferation of PBMC after αCD3/CD28 stimulation; type: cell-based; conditions: for Cell Numbers: 72 h
Method: Human peripheral blood mononuclear cells (PBMC) were pre-treated with 10-Hydroxy-2-decenoic acid (QBA) for 1 hour prior to stimulation with αCD3/CD28. After 72 hours of incubation, cell number was assessed by Cell Titer Glow.

O=C(O)C=CCCCCCCCO [QBA, 10-Hydroxy-2-decenoic acid]
IL-1β (pg/mL)/Cell Numbers ([1]; QBA 50 μM 1 h before LPS 100 ng/mL): 0.00386 (pg/mL)/Cell Numbers | IL-1β (pg/mL)/Cell Numbers ([1]; QBA 100 μM 1 h before LPS 100 ng/mL): 0.00402 (pg/mL)/Cell Numbers | IL-1β (pg/mL)/Cell Numbers ([1]; QBA 500 μM 1 h before LPS 100 ng/mL): 0.00242 (pg/mL)/Cell Numbers | IL-1β (pg/mL)/Cell Numbers ([1]; QBA 1000 μM 1 h before LPS 100 ng/mL): 0.00242 (pg/mL)/Cell Numbers | IL-1β (pg/mL)/Cell Numbers ([1]; QBA 2500 μM 1 h before LPS 100 ng/mL): 0.00097 (pg/mL)/Cell Numbers | IL-1β (pg/mL)/Cell Numbers ([1]; QBA 5000 μM 1 h before LPS 100 ng/mL): 0.00067 (pg/mL)/Cell Numbers | production of IL-1β in immune cells ([1]; summary of Table 9): reduced the production | Time (s) in Open Arm (older rats; QBA 0.4 mg/kg/day): 48.5 s | Time (s) in Open Arm (older rats; QBA 4 mg/kg/day): 52.2 s | Time (s) in Open Arm (older rats; QBA 12 mg/kg/day): 37.1 s | anxiety as measured by the time in the open arms of the elevated plus maze (older rats; QBA 24 mg/kg/d, 15-18-month old male rats): decreased anxiety | Time (s) in Open Arm (older rats; QBA 24 mg/kg/day): 69.8 s | neurogenesis and gliogenesis from stem cells (stem cells): stimulation of neurogenesis from stem cells while inhibiting gliogenesis | Cell Numbers ([2]; QBA 50 μM 1 h before αCD3/CD28): 517020 | Cell Numbers ([2]; QBA 100 μM 1 h before αCD3/CD28): 472678 | Cell Numbers ([2]; QBA 500 μM 1 h before αCD3/CD28): 442008 | Cell Numbers ([2]; QBA 1000 μM 1 h before αCD3/CD28): 344026 | Cell Numbers ([2]; QBA 2500 μM 1 h before αCD3/CD28): 104291 | Cell Numbers ([2]; QBA 5000 μM 1 h before αCD3/CD28): 1601 | concentrations that reduced the proliferation of human immune cells ([2]; summary of Table 11): greater than 500 μM
